In US6451814B1, “Heterocyclic β-3 adrenergic receptor agonists” (Wyeth, priority 2000, dated 2002):
Structures can show the parent of a compound that is named as a salt.

biological target: T1, human β3-adrenergic receptor (Homo sapiens, UniProt P13945); test: cAMP response (SPA kit) in CHO cells transfected with human β3 adrenergic receptor; type: cell-based; conditions: CHO cells expressing human β3-AR; 10^-9 M to 10^-5 M; 30 min at 37° C.; cAMP by SPA; read-out: EC50(β3)
T1 construct: Full length β3 AR clones (402 amino acids) containing the last 6 amino acids of hβ3—AR are prepared; expressed in transfected cells; host or cells: CHO cells
T1 sequence (P13945 whole entry): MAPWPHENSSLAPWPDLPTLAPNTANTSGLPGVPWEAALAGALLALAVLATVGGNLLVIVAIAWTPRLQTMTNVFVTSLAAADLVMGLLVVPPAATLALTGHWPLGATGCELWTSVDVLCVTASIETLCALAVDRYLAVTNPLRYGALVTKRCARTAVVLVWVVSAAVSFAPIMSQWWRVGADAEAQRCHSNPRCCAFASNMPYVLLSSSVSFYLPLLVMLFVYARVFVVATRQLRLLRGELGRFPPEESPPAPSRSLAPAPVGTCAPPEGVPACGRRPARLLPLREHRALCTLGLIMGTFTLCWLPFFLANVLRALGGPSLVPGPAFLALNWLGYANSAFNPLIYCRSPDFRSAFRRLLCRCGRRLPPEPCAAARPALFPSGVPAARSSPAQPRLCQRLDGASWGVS

EC50 | Compound
25 nM | CCOC(=O)c1ccc(N2CCC(Nc3ccc(CCNC[C@H](O)c4ccc(O)c(NS(C)(=O)=O)c4)cc3)CC2)cc1 [Example 120, 4-[4-(4-{2-[(2R)-2-Hydroxy-2-(4-hydroxy-3-methanesulfonylamino-phenyl)-ethylamino]-ethyl}-phenylamino)-piperidin-1-yl]-benzoic Acid Ethyl Ester]
100 nM | O=C(OCc1cc(F)ccc1F)N1CCC(Nc2ccc(CCNC[C@H](O)COc3ccc(O)cc3)cc2)CC1 [Example 122, 4-(4-{2-[(2S)-2-Hydroxy-3-(4-hydroxy-phenoxy)-propylamino]-ethyl}-phenylamino)-piperidine-1-carboxylic Acid 2,5-difluoro-benzyl Ester]

same assay, conditions: maximal response of compound compared to maximal response of isoproterenol at 10^-5 M; CHO cells, human β3-AR

IA(β3) | Compound
1.1 | CCOC(=O)c1ccc(N2CCC(Nc3ccc(CCNC[C@H](O)c4ccc(O)c(NS(C)(=O)=O)c4)cc3)CC2)cc1 [Example 120, 4-[4-(4-{2-[(2R)-2-Hydroxy-2-(4-hydroxy-3-methanesulfonylamino-phenyl)-ethylamino]-ethyl}-phenylamino)-piperidin-1-yl]-benzoic Acid Ethyl Ester]
0.81 | O=C(OCc1cc(F)ccc1F)N1CCC(Nc2ccc(CCNC[C@H](O)COc3ccc(O)cc3)cc2)CC1 [Example 122, 4-(4-{2-[(2S)-2-Hydroxy-3-(4-hydroxy-phenoxy)-propylamino]-ethyl}-phenylamino)-piperidine-1-carboxylic Acid 2,5-difluoro-benzyl Ester]

test system: not given; test: not given; conditions: not given

Compound | melting point
CCCCCCNC(=O)Nc1ccc(S(=O)(=O)N2CCC(Nc3ccc(CCNC[C@H](O)COc4ccc(O)cc4)cc3)CC2)cc1 (as salt: hydrochloride) [Example 108, 1-Hexyl-3-{4-[4-(4-{2-[(2S)-2-hydroxy-3-(4-hydroxy-phenoxy)-propylamino]-ethyl}-phenylamino)-piperidine-1-sulfonyl]-phenyl}-urea] | 165 to 168 °C
C=CCc1ccccc1OC[C@@H](O)CNCCc1ccc(NC2CCN(C(=O)NCCCCCCCC)CC2)cc1 (as salt: salt) [Example 4, 4-(4-{2-[(2S)-3-(2-Allyl-phenoxy)-2-hydroxy-propylamino]-ethyl}-phenylamino)-piperidine-1-carboxylic Acid Octylamide] | 73 to 80 °C
CCCCCCCCNC(=O)N1CCC(Nc2ccc(CCNC[C@H](O)COc3ccc(N)nc3)cc2)CC1 (as salt: salt) [Example 5, 4-(4-{2-[(2S)-3-(6-Amino-pyridin-3-yloxy)-2-hydroxy-propylamino]-ethyl}-phenylamino)-piperidine-1-carboxylic Acid Octylamide] | 134 to 138 °C
CCCCCCCCNC(=O)N1CCC(Nc2ccc(CCNCC(O)c3ccc(O)c(C(N)=O)c3)cc2)CC1 (centres unmarked) (as salt: salt) [Example 7, 4-(4-{2-[2-(3-Carbamoyl-4-hydroxy-phenyl)-2-hydroxy-ethylamino]-ethyl}-phenylamino)-piperidine-1-carboxylic Acid Octylamide] | 101 to 104 °C
CCCCCCCCNC(=O)N1CCC(N(C(C)=O)c2ccc(CCNC[C@H](O)COc3ccc(O)cc3)cc2)CC1 (as salt: salt) [Example 8, 4-[Acetyl-(4-{2-[(2S)-2-hydroxy-3-(4-hydroxy-phenoxy)-propylamino]-ethyl}-phenyl)-amino]-piperidine-1-carboxylic Acid Octylamide] | 71 to 74 °C
O=C(NCCCC1CCCC1)N1CCC(Nc2ccc(CCNC[C@H](O)COc3ccc(O)cc3)cc2)CC1 (as salt: salt) [Example 12, 1-4-(4-{2-[(2S)-2-Hydroxy-3-(4-hydroxy-phenoxy)-propylamino]-ethyl}-phenylamino)-piperidine-1-carboxylic Acid (3-cyclopentyl-propyl)-amide] | 71 to 74 °C
CCCCCCCCNC(=O)N1CCC(Nc2ccc(CCNC[C@H](O)c3cccc(Cl)c3)cc2)CC1 (as salt: salt) [Example 36, 4-(4-{2-[(2R)-2-(3-Chloro-phenyl)-2-hydroxy-ethylamino]-ethyl}-phenylamino)-piperidine-1-carboxylic Acid Octylamide] | 168 to 171 °C
CCCCCCCCNC(=O)N1CCC(Oc2ccc(CCNC[C@H](O)COc3ccc(O)cc3)cc2)CC1 (as salt: salt) [Example 54, 4-[4-(2-{[(2S)-2-Hydroxy-3-(4-hydroxyphenoxy)propyl]amino}ethyl)phenoxy]-N-octyl-1-piperidinecarboxamide] | 153 to 155 °C
O=C(NCc1ccc(F)cc1)N1CCC(Oc2ccc(CCNC[C@H](O)COc3ccc(O)cc3)cc2)CC1 (as salt: salt) [Example 56, 4-(4-{2-[(2S)2-Hydroxy-3-(4-hydroxy-phenoxy)-propylamino]-ethyl}-phenoxy)-piperidine-1-carboxylic Acid 4-fluoro-benzylamide] | 160 to 162 °C
CCCCCCCCNC(=O)N1CCC(Nc2ccc(CCNC[C@H](O)COc3ccc(O)c(NS(C)(=O)=O)c3)cc2)CC1 (as salt: salt) [Example 66, 4-(4-{2-[(2S)-2-Hydroxy-3-(4-hydroxy-3-methanesulfonylamino-phenoxy)-propylamino]-ethyl}-phenylamino)-piperidine-1-carboxylic Acidoctylamide] | 115 to 117 °C
CCOC(=O)C1CCCN(C(=O)N2CCC(Nc3ccc(CCNC[C@H](O)c4ccc(O)c(NS(C)(=O)=O)c4)cc3)CC2)C1 (stereo partly drawn) (as salt: salt) [Example 78, 1-[[4-[[4-[2-[[(2R)-2-Hydroxy-2-[4-hydroxy-3-[(methylsulfonyl)amino]phenyl]ethyl]amino]ethyl]phenyl]amino]-1-piperidinyl]carbonyl]-3-piperidine Carboxylic Acid, Ethyl Ester] | 106 to 108 °C
CCCCCCCCNC(=O)N1CCC(C(=O)N2CCC(Nc3ccc(CCNC[C@H](O)COc4ccc(O)cc4)cc3)CC2)CC1 (as salt: salt) [Example 92, 4-[4-(4-{2-[(2S)-2-Hydroxy-3-(4-hydroxy-phenoxy)-propylamino]-ethyl}-phenylamino)-piperidine-1-carbonyl]-piperidine-1-carboxylic Acidoctylamide] | 88 to 91 °C

Further lines, results first:

melting point | Compound
93 to 99 °C | O=C(NCc1ccc(Cl)cc1Cl)N1CCC(Nc2ccc(CCNC[C@H](O)COc3ccc(O)cc3)cc2)CC1 (as salt: ammonium) [Example 20, 4-(4-{2-[(2S)-2-Hydroxy-3-(4-hydroxy-phenoxy)-propylamino]-ethyl}-phenylamino)-piperidine-1-carboxylic Acid 2,4-dichloro-benzylamide]
94 to 97 °C | O=C(NCc1ccc(Cl)c(Cl)c1)N1CCC(Nc2ccc(CCNC[C@H](O)COc3ccc(O)cc3)cc2)CC1 (as salt: ammonium) [Example 21, 4-(4-{2-[(2S)-2-Hydroxy-3-(4-hydroxy-phenoxy)-propylamino]-ethyl}-phenylamino)-piperidine-1-carboxylic Acid 3,4-dichloro-benzylamide]
80 to 82 °C | Oc1ccc(OC[C@@H](O)CNCCc2ccc(NC3CCN(c4nc(-c5ccccc5)cs4)CC3)cc2)cc1 (as salt: hydrochloride) [Example 117, 4-[(2S)-2-Hydroxy-3-(2-{4-[1l-(4-phenyl-thiazol-2-yl)-piperidin-4-ylamino]-phenyl}-ethylamino)-propoxy]-phenol]
89 to 91 °C | O=C(NCc1ccc(F)cc1)N1CCC(Nc2ccc(CCNC[C@H](O)COc3ccc(O)cc3)cc2)CC1 (as salt: salt) [Example 1, 4-(4-{2-[(2S)-2-Hydroxy-3-(4-hydroxy-phenoxy)-propylamino]-ethyl}-phenylamino)-piperidine-1-carboxylic Acid 4-fluoro-benzylamide]
77 to 86 °C | O=C(NC1CCCCC1)N1CCC(Nc2ccc(CCNC[C@H](O)COc3ccc(O)cc3)cc2)CC1 (as salt: salt) [Example 2]
103 to 108 °C | COc1cccc(CCNC(=O)N2CCC(Nc3ccc(CCNC[C@H](O)COc4ccc(O)cc4)cc3)CC2)c1 (as salt: salt) [Example 6, 4-(4-{2-[(2S)-2-Hydroxy-3-(4-hydroxy-phenoxy)-propylamino]-ethyl}-phenylamino)-piperidine-1-carboxylic Acid [2-(3-methoxy-phenyl)-ethyl]-amide]
72 to 77 °C | CNC(=O)N1CCC(Nc2ccc(CCNC[C@H](O)COc3ccc(O)cc3)cc2)CC1 (as salt: salt) [Example 9, 4-(4-{2-[(2S)-2-Hydroxy-3-(4-hydroxy-phenoxy)-propylamino]-ethyl}-phenylamino)-piperidine-1-carboxylic Acid Methylamide]
81 to 85 °C | CCNC(=O)N1CCC(Nc2ccc(CCNC[C@H](O)COc3ccc(O)cc3)cc2)CC1 (as salt: salt) [Example 10, 4-(4-{2-[(2S)-2-Hydroxy-3-(4-hydroxy-phenoxy)-propylamino]-ethyl}-phenylamino)-piperidine-1-carboxylic Acid Ethylamide]
89 to 96 °C | CC(C)NC(=O)N1CCC(Nc2ccc(CCNC[C@H](O)COc3ccc(O)cc3)cc2)CC1 (as salt: salt) [Example 11]
175 °C | O=C(O)COc1ccc(NC(=O)N2CCC(Nc3ccc(CCNC[C@H](O)COc4ccc(O)cc4)cc3)CC2)cc1 (as salt: salt) [Example 58, (4-{[4-(4-{2-[(2S)-2-Hydroxy-3-(4-hydroxy-phenoxy)-propylamino]-ethyl}-phenylamino)-piperidine-1-carbonyl]-amino}-phenoxy)-acetic Acid]
101 to 103 °C | COc1ccc2[nH]c(C(=O)N3CCC(Nc4ccc(CCNCC(O)COc5ccc(O)cc5)cc4)CC3)cc2c1 (centres unmarked) (as salt: salt) [Example 94, [4-(4-{2-[2-Hydroxy-3-(4-hydroxy-phenoxy)-propylamino]-ethyl}-phenylamino)-piperidin-1-yl]-(5-methoxy-1H-indol-2-yl)-methanone]
114 to 116 °C | O=C(c1cc2cc(Br)ccc2[nH]1)N1CCC(Nc2ccc(CCNC[C@H](O)COc3ccc(O)cc3)cc2)CC1 (as salt: salt) [Example 96, (5-Bromo-1H-indol-2-yl)-[4-(4-{2-[(2S)-2-hydroxy-3-(4-hydroxy-phenoxy)-propylamino]-ethyl}-phenylamino)-piperidin-1-yl]-methanone]
84 to 86 °C | COc1c(C(=O)N2CCC(Nc3ccc(CCNC[C@H](O)COc4ccc(O)cc4)cc3)CC2)sc2ccccc12 (as salt: salt) [Example 97, [4-(4-{2-[(2S)-2-Hydroxy-3-(4-hydroxy-phenoxy)-propylamino]-ethyl}-phenylamino)-piperidin-1-yl]-(3-methoxy-benzo[b]thiophen-2-yl)-methanone]
